According to patent US20230157952A1, “METHOD FOR IMPROVING THE STABILITY OF A PHARMACEUTICAL COMPOSITION COMPRISING A HIGH PENETRATION DRUG, AND THE PHARMACEUTICAL COMPOSITION OBTAINED THEREFROM” (Techfields Inc., priority 2020, published 2023):

What was measured:
[1] = Effect of temperature (and pH) on the stability of the solution (purity); type: physicochemical; conditions: 7% solution in water
[2] = Effect of concentration on the stability of the solution (purity over time); conditions: in water at 25° C.

CCN(CC)CCOC(=O)Cc1ccc(C(=O)c2ccc(C)cc2)n1C.Cl [2-(diethylamino)ethyl 1-methyl-5-(4-methylbenzoyl)-1H-pyrrole-2-acetate•HCl]
Stability of the solution at a temperature higher than 40° C. and a pH lower than 3 or greater than 6 [1]: not stable | Purity at Day 3 ([2]; 0.01 wt %): 82.3% | Purity at Day 7 ([2]; 0.01 wt %): 72.2% | Purity at Day 14 ([2]; 0.01 wt %): 57.4% | Purity at Day 21 ([2]; 0.01 wt %): 45.4% | Purity at Day 28 ([2]; 0.01 wt %): 35.7% | Purity at hr 0 ([2]; 0.01 wt %): 97.4% | Purity at Day 3 ([2]; 0.1 wt %): 95.6% | Purity at Day 7 ([2]; 0.1 wt %): 93.3% | Purity at Day 14 ([2]; 0.1 wt %): 88.3% | Purity at Day 21 ([2]; 0.1 wt %): 83.5% | Purity at Day 28 ([2]; 0.1 wt %): 78.1% | Purity at hr 0 ([2]; 0.1 wt %): 97.5% | Purity at Day 3 ([2]; 1 wt %): 95.7% | Purity at Day 7 ([2]; 1 wt %): 94.6% | Purity at Day 14 ([2]; 1 wt %): 92.3% | Purity at Day 21 ([2]; 1 wt %): 90.1% | Purity at Day 28 ([2]; 1 wt %): 88.6% | Purity at hr 0 ([2]; 1 wt %): 97.7% | Purity at Day 3 ([2]; 3 wt %): 96.5% | Purity at Day 7 ([2]; 3 wt %): 96.2% | Purity at Day 14 ([2]; 3 wt %): 94.8% | Purity at Day 21 ([2]; 3 wt %): 94.0% | Purity at Day 28 ([2]; 3 wt %): 92.7% | Purity at hr 0 ([2]; 3 wt %): 97.9% | Purity at Day 3 ([2]; 5 wt %): 97.2% | Purity at Day 7 ([2]; 5 wt %): 97.0% | Purity at Day 14 ([2]; 5 wt %): 96.8% | Purity at Day 21 ([2]; 5 wt %): 95.6% | Purity at Day 28 ([2]; 5 wt %): 94.4% | Purity at hr 0 ([2]; 5 wt %): 97.9% | Purity at Day 3 ([2]; 7 wt %): 97.5% | Purity at Day 7 ([2]; 7 wt %): 97.2% | Purity at Day 14 ([2]; 7 wt %): 97.2% | Purity at Day 21 ([2]; 7 wt %): 96.7% | Purity at Day 28 ([2]; 7 wt %): 96.5% | Purity at hr 0 ([2]; 7 wt %): 98.1% | Purity at Day 3 ([2]; 8 wt %): 97.7% | Purity at Day 7 ([2]; 8 wt %): 97.3% | Purity at Day 14 ([2]; 8 wt %): 96.9% | Purity at Day 21 ([2]; 8 wt %): 96.9% | Purity at Day 28 ([2]; 8 wt %): 96.6% | Purity at hr 0 ([2]; 8 wt %): 98.1% | Purity at Day 3 ([2]; 10 wt %): 97.9% | Purity at Day 7 ([2]; 10 wt %): 97.5% | Purity at Day 14 ([2]; 10 wt %): 97.3% | Purity at Day 21 ([2]; 10 wt %): 97.1% | Purity at Day 28 ([2]; 10 wt %): 96.5% | Purity at hr 0 ([2]; 10 wt %): 98.2% | Purity at Day 3 ([2]; 15 wt %): 97.7% | Purity at Day 7 ([2]; 15 wt %): 97.6% | Purity at Day 14 ([2]; 15 wt %): 97.4% | Purity at Day 21 ([2]; 15 wt %): 97.1% | Purity at Day 28 ([2]; 15 wt %): 96.8% | Purity at hr 0 ([2]; 15 wt %): 98.1% | Purity at Day 3 ([2]; 20 wt %): 97.6% | Purity at Day 7 ([2]; 20 wt %): 97.5% | Purity at Day 14 ([2]; 20 wt %): 97.2% | Purity at Day 21 ([2]; 20 wt %): 97.1% | Purity at Day 28 ([2]; 20 wt %): 96.8% | Purity at hr 0 ([2]; 20 wt %): 98.0% | Purity at Day 3 ([2]; 30 wt %): 97.7% | Purity at Day 7 ([2]; 30 wt %): 97.5% | Purity at Day 14 ([2]; 30 wt %): 97.3% | Purity at Day 21 ([2]; 30 wt %): 97.0% | Purity at Day 28 ([2]; 30 wt %): 96.7% | Purity at hr 0 ([2]; 30 wt %): 98.1% | Purity at Day 3 ([2]; 50 wt %): 97.8% | Purity at Day 7 ([2]; 50 wt %): 97.5% | Purity at Day 14 ([2]; 50 wt %): 97.2% | Purity at Day 21 ([2]; 50 wt %): 96.9% | Purity at Day 28 ([2]; 50 wt %): 96.8% | Purity at hr 0 ([2]; 50 wt %): 98.2% | Stability when the concentration is 0.1% or lower [2]: not stable
